One data set deals with Purified CD19+B cells. Description: effect of TPC on T cell-independent anti-Gal B cell activation (ELISPOT). It is filed as cell-based. The following applies: TPC (410S) 1 mg/mL pretreatment 30 min or 50 ug/mL daily; 5 day culture with SAC, IL-2, IL-4, anti-CD40. The protocol:
(§1) To each well of the first 10 columns of a sterile hydrazine modified polystyrene 96-well plate (Corning Costar, Cambridge, Mass.), 100 μL per well of a solution containing 3.2 mg/mL αGal(1,3)Gal β 1-4 GlcNAc, 3.1 mg/mL EDC and 2.4 mg/mL NHS were added in a darkened cold room and the reaction proceeded for four hours. After careful washing with sterile H2O, the plates were completely covered with plastic strips and stored at 4° C. until use. Plates were blocked with sterile 400 ul/well of PBS/1% HSA for 2 hours at 37° C. Peripheral blood mononuclear cells were isolated by Ficoll-Hypaque (specific gravity, 1.077 g/mL; Pharmacia Fine Chemicals, Piscatawy, N.J.) density gradients at 400 g for 30 min. at 22° C. […] Plates were incubated overnight in the dark at room temperature and single Ab-secreting, spot forming cells (ASC) were visualized, analyzed and counted under low magnification using an inverted phase microscope. Data represents total isotype specific anti-gal Ab-secreting cells/10^6 PBMNCs, calculated from serially diluted cell samples.
Purified CD19+B cells were obtained by positive selection with the use of anti-CD19+ immunomagnetic beads (Pan-B (CD19); Dynal, Lake Success, N.Y.). […] Following the 5 day culture period, cells were washed extensively, counted, viability determined and the number of ASC determined using the anti-Gal ELISPOT assay. […]

Data set [1] has as its system circulating anti-Gal ASC (IgM and IgG). As to the kind of experiment: in vivo effects of TPC administration on circulating anti-Gal ASC (ELISPOT). Details: species or system cynomologous monkeys. The protocol: To each well of the first 10 columns of a sterile hydrazine modified polystyrene 96-well plate (Corning Costar, Cambridge, Mass.), 100 μL per well of a solution containing 3.2 mg/mL αGal(1,3)Gal β 1-4 GlcNAc, 3.1 mg/mL EDC and 2.4 mg/mL NHS were added in a darkened cold room and the reaction proceeded for four hours. After careful washing with sterile H2O, the plates were completely covered with plastic strips and stored at 4° C. until use. Plates were blocked with sterile 400 ul/well of PBS/1% HSA for 2 hours at 37° C. Peripheral blood mononuclear cells were isolated by Ficoll-Hypaque (specific gravity, 1.077 g/mL; Pharmacia Fine Chemicals, Piscatawy, N.J.) density gradients at 400 g for 30 min. at 22° C. Low density mononuclear cells at the interfaces were harvested, washed twice by centrifugation (400 g for 10 min.) and resuspended in serum-free complete culture medium consisting of RPMI 1640 (GIBCO, Grand Island, N.Y.) supplemented with 1% HSA, 2 mM L-glutamine, and 100 U/mL penicillin/100 ug/mL streptomycin (GIBCO, Grand Island, N.Y.). Manual hemacytometer cell counts and viability determinations were performed using trypan blue exclusion dye. Thereafter, serial dilutions of PBMNCs (starting at 5×10^5 cells) in 100 ul of serum-free complete culture medium were added to each well and incubated for 18-24 hours at 37° C. in 5% CO2. After washing 8 times using PBS/0.1% Tween-20, the plates were incubated with biotinylated isotype specific goat anti-human Abs (biotin goat anti-human IgM Cat#62-7540; biotin goat anti-human IgG (H&L) Cat# 62-7140, Zymed, San Francisco, Calif.)(1:1000) at 37° C. for 4 hours. After washing, streptavidin conjugated alkaline phosphatase (Cat# 43-4322, Zymed, San Francisco, Calif.) (1:1000) was added for 30 min. at 37° C. Finally, after washing an additional 8 times with PBS/0.1% Tween-20, 5-Bromo-4-chloro-3indolyl-phosphate (Cat# B-8503, Sigma, St. Louis, Mo.) dissolved in 1% low-melt sea-plaque agarose (FMC Bioproducts, Cat#50101) was added as gel substrate to each well. Plates were incubated overnight in the dark at room temperature and single Ab-secreting, spot forming cells (ASC) were visualized, analyzed and counted under low magnification using an inverted phase microscope. Data represents total isotype specific anti-gal Ab-secreting cells/10^6 PBMNCs, calculated from serially diluted cell samples.
To investigate the in vivo response of circulating anti-Gal ASC to TPC administration, we measured the number of ASC per 10^6 peripheral blood mononuclear cells isolated from cynomologous monkeys treated with either TPC (410S) or blocked-PEG as control. Blocked PEG is a 4-arm, 10,000 MW PEG-amine that was reacted with acetic anhydride in order to block the amine-groups of the PEG. Briefly, heparinized peripheral blood samples (2-3 mL) from TPC and PEG treated monkeys were obtained prior to experimentation, after 6 dosages of TPC, 7 days following porcine heart transplantation with daily infusions, 7 days post infusion termination, and 18 days post infusion. Mononuclear cells were isolated via Ficoll-Hypaque gradient centrifugation and assayed for anti-Gal IgM and IgG ASC using the ELISPOT assay as described in Example 15. […] In contrast, the number of IgG ASC in the PEG treated animal increased 14.9-fold with no detectable change in the number of IgM ASC. Seven days after the termination of TPC treatment, 14 days post transplantation, circulating IgG and IgM ASC were 27-84% and 1.3-9.8% of baseline values, respectively. In the PEG treated monkey, IgG ASC were 4.4 above baseline and IgM ASC levels reduced 51%.

The test system of data set [2] is peripheral blood-derived ASCs. Description: short-term in vitro effects of TPC on peripheral blood-derived ASCs (ELISPOT). It is filed as cell-based. The following applies: 50 ug/mL TPC (410S), 2 hours at 37° C., heparinized peripheral blood from a normal donor. The protocol: as §1
short-term in vitro effects of TPC on peripheral blood-derived ASCs were assessed by incubating (2 hours at 37° C., with rotation at 6 rpm) heparinized peripheral blood from a normal donor in the presence or absence of 50 ug/mL TPC (410S). […]

Setting [3] is: day 7 post transplantation (porcine transgenic heart), daily TPC.
Setting [4] is: seven days after termination of TPC treatment, 14 days post transplantation.

For “(αGal(1,3)Gal β 1-4 GlcNAc)4-PEG [Example 410S]”, in the data set with Purified CD19+B cells, the “effect on the number of detectable ASCs” value is given as “no effect”; the “effect on total cell yield and viability” value is “no effect”. For the same substance, the “IgG ASC values” in data set [1] (18 days post TPC termination) was “returned to near normal baseline values”. Moreover, in data set [1] (setting [3]), the “circulating IgG ASC levels decreased” value is given as 70-99.7% and the “circulating IgM ASC levels decreased” value is on record as 98.5-100%. Further, the “circulating anti-Gal ASC (IgM and IgG) numbers inhibited” value in data set [1] (following 6 dosages of TPC over 18 days) is listed as 70-99%. In data set [1] (setting [4]), the “circulating IgG ASC, % of baseline values” was 27-84% and the “circulating IgM ASC, % of baseline values” is listed as 1.3-9.8%. Further, in data set [2], the “effect on the number of detectable ASCs” value is given as “no effect”; the “effect on total cell yield and viability” value is on record as “no effect”.

The values are drawn from US20040141944A1, “Inhibition of xenoreactive antibodies” (priority 1998, published 2004).
